Source: publication PMC7893821, “A conserved PI(4,5)P2–binding domain is critical for immune regulatory function of DOCK8” (Life Science Alliance, 2021)
Where a chain is given by its changes, count along the chain named.

Tests used:
Assay in all cases: isothermal titration calorimetry
Type in all cases: binding
DOCK8 DHR-1 domain [1] = target: T1, DOCK8 DHR-1 domain (Mus musculus, UniProt Q8C147, K576A)
T1 construct: DHR-1 domain, residues 558-740, pGEX6P-1, E. coli ArcticExpress DE3; GST tag cut with PreScission for ITC, GST fusion kept in vesicle assays
T1 sequence (Q8C147 558-740 K576A): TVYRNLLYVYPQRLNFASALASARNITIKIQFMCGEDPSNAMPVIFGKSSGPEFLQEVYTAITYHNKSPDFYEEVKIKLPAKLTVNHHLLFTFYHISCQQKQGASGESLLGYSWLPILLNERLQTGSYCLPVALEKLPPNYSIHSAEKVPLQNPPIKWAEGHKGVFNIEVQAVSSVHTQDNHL
Excerpt: (§1) isothermal titration calorimetry on DOCK8 DHR-1 domain | Mutations R570A, K576A, and R581A led to two to threefold reduction in the binding affinity

DOCK8 DHR-1 domain [2] = target: T2, DOCK8 DHR-1 domain (Mus musculus, UniProt Q8C147, R570A)
T2 construct: DHR-1 domain, residues 558-740, pGEX6P-1, E. coli ArcticExpress DE3; GST tag cut with PreScission for ITC, GST fusion kept in vesicle assays
T2 sequence (Q8C147 558-740 R570A): T1 sequence (Q8C147 558-740 K576A) with R13A, A19K
Excerpt: as §1

DOCK8 DHR-1 domain [3] = target: T3, DOCK8 DHR-1 domain (Mus musculus, UniProt Q8C147, K576A/R581A); details: 20 mM Tris-HCl pH 8.0, 16 mM NaCl, 25 °C; GST tag removed
T3 construct: DHR-1 domain, residues 558-740, pGEX6P-1, E. coli ArcticExpress DE3; GST tag cut with PreScission for ITC, GST fusion kept in vesicle assays
T3 sequence (Q8C147 558-740 K576A/R581A): T1 sequence (Q8C147 558-740 K576A) with R24A

DOCK8 DHR-1 domain [4] = target: T4, DOCK8 DHR-1 domain (Mus musculus, UniProt Q8C147, R581A)
T4 construct: DHR-1 domain, residues 558-740, pGEX6P-1, E. coli ArcticExpress DE3; GST tag cut with PreScission for ITC, GST fusion kept in vesicle assays
T4 sequence (Q8C147 558-740 R581A): T1 sequence (Q8C147 558-740 K576A) with A19K, R24A

DOCK8 DHR-1 domain [5] = target: T5, DOCK8 DHR-1 domain (Mus musculus, UniProt Q8C147)
T5 construct: DHR-1 domain, residues 558-740, pGEX6P-1, E. coli ArcticExpress DE3; GST tag cut with PreScission for ITC, GST fusion kept in vesicle assays
T5 sequence (Q8C147 558-740): T1 sequence (Q8C147 558-740 K576A) with A19K

| SMILES | Kd (DOCK8 DHR-1 domain [1]) [µM] | Kd (DOCK8 DHR-1 domain [2]) [µM] | no binding detected (DOCK8 DHR-1 domain [3]) | Kd (DOCK8 DHR-1 domain [4]) [µM] | Kd (DOCK8 DHR-1 domain [5]) [µM] |
| --- | --- | --- | --- | --- | --- |
| CCCCCCCC(=O)OC[C@H](COP(=O)(O)O[C@@H]1[C@H](O)[C@H](O)[C@@H](OP(=O)(O)O)[C@H](OP(=O)(O)O)[C@H]1O)OC(=O)CCCCCCC [diC8-PI(4,5)P2] | 37.1 ± 8 | 42.9 ± 3.1 | Consistently, no binding was observed for KARA mutant. | 64.2 ± 7.7 | 19.5 ± 3.7 |
| CCCCCCCC(=O)OC[C@H](COP(=O)(O)O[C@H]1[C@H](O)[C@@H](OP(=O)(O)O)[C@H](OP(=O)(O)O)[C@@H](OP(=O)(O)O)[C@H]1O)OC(=O)CCCCCCC [diC8-PI(3,4,5)P3] |  |  |  |  | 26.9 ± 3 |
